Results published in BigSolDB 2.1.

N[C@@H](Cc1ccccc1)C(=O)O
solubility (mole fraction)
Conditions	283.15 K	288.15 K	293.15 K	298.15 K	303.15 K	308.15 K	313.15 K	318.15 K	323.15 K	328.15 K
in 1,4-dioxane	–	1.86e-05	2.37e-05	3.09e-05	3.5e-05	3.9e-05	4.53e-05	5.92e-05	8.28e-05	0.000118
in acetone	8.09e-05	0.000104	0.000131	0.000153	0.000176	0.000226	0.000293	0.00033	0.000375	–
in acetonitrile	7.9e-06	9.3e-06	1.12e-05	1.55e-05	1.8e-05	2.4e-05	3.67e-05	4.72e-05	5.69e-05	–
in ethanol	0.000125	0.000136	0.000151	0.000165	0.000177	0.000191	0.000208	0.000222	0.000231	–
in ethyl acetate	1.33e-05	1.49e-05	1.95e-05	2.06e-05	2.37e-05	3.38e-05	5.38e-05	9.29e-05	0.000194	–
in isobutanol	7.49e-05	7.77e-05	9.15e-05	0.000124	0.000158	0.000187	0.000224	0.000278	0.000323	–
in isopropanol	4.14e-05	5.16e-05	6.41e-05	7.29e-05	9.54e-05	0.00011	0.000122	0.00015	0.000178	–
in methanol	0.000742	0.000807	0.000866	0.000937	0.000996	0.00105	0.00112	0.00119	0.00126	–
in methyl acetate	4.3e-06	8.5e-06	1e-05	1.49e-05	1.93e-05	3.27e-05	4.41e-05	5.46e-05	6.4e-05	–
in n-butanol	5.9e-06	8.4e-06	9.8e-06	2.2e-05	3.48e-05	4.72e-05	5.85e-05	8.5e-05	0.000104	–
in n-propanol	2.83e-05	2.99e-05	3.34e-05	4.63e-05	5.58e-05	6.44e-05	8.96e-05	0.000141	0.000187	–
in water	0.00274	0.00289	0.00307	0.00321	0.00342	0.0036	0.00379	0.00404	0.00433	–
